Laboratory results published in patent publication US20240308987A1, “SMALL MOLECULE INHIBITOR AGAINST NASOPHARYNGEAL CARCINOMA, PREPARATION METHOD AND APPLICATION THEREOF” (SHENZHEN BAY LABORATORY, priority 2021, published 2024).

Test system: C666-1 cells
Experiment: C666-1 Cell Viability Assay (Resazurin cytotoxicity test)
Type: cell-based
Conditions: Homo sapiens, C6661, EB virus-positive C666-1 cells, 72 hours treatment, 100-0.78 micromole/L, read-out: Inhibitory Rate
Procedure: In order to evaluate the inhibitory effect of the small molecular compound of the present disclosure on EBNA1 at the cellular level, a cytotoxicity test was performed.
As mentioned in the Background of the present disclosure, nasopharyngeal carcinoma is a kind of disease highly associated with latent infection of EB virus. EB virus in latent state only expresses limited proteins to maintain its genome replication, among which EBNA1 protein is an essential functional protein. Studies have confirmed that inhibition of EBNA1 can reduce the proliferation of the corresponding nasopharyngeal carcinoma cells or kill them. Therefore, EB virus-positive nasopharyngeal carcinoma tumor cells (C666-1 cells) are selected for test to verify the effect of the small molecular compound of the present disclosure.
During testing, 100 microliters of different cell lines were inoculated onto a transparent 96-well plate, and 5×10^3 cells were inoculated in each well for C666-1 cells. After the cells were cultured in an incubator under […] at 37° C. for 24 hours, 10 microliters of compound with a concentration ranging from 1 mmol/L to 7.8 micromol/L were added to each well (8 points, double dilution, the final concentration was 100-0.78 micromole/L), and treated in the incubator under carbon dioxide at 37° C. for 72 hours. Cell viability was assessed using the redox indicator Resazurin. After addition of 10 microliters of 600 micromole/liter Resazurin to each well and incubation at 37° C. for 3 hours. Using a Tecan microplate reader, the fluorescence signals were detected at an […]. A software was used to fit the inhibition curve and calculate half-maximal effect concentration (EC50). The selectivity of compound activity was assessed by comparing the EC50 values of EB virus-positive and EB virus-negative cell lines.

Structure (SMILES) | EC50 [µM]
COC(=O)c1cccc(N2CC(Oc3ccc(COc4cccnc4)cc3)C2)c1-n1cccc1 [Example 1, methyl 3-(3-(4-((pyridin-3-yloxy)methyl)phenoxy)azetidin-1-yl)-2-(1H-pyrrol-1-yl) benzoate] | 1 to 10
O=C(O)c1cccc(N2CC(Oc3ccc(COc4cccnc4)cc3)C2)c1-n1cccc1 [Example 1a, 3-(3-(4-((pyridin-3-yloxy)methyl)phenoxy)azetidin-1-yl)-2-(1H-pyrrol-1-yl) benzoic acid] | 1 to 10
CCOC(=O)c1cccc(N2CC(Oc3ccc(COc4cccnc4)cc3)C2)c1-n1cccc1 [Example 1b, ethyl 3-(3-(4-((pyridin-3-yloxy)methyl)phenoxy)azetidin-1-yl)-2-(1H-pyrrol-1-yl) benzoate] | < 1
O=C(NO)c1cccc(N2CC(Oc3ccc(COc4cccnc4)cc3)C2)c1-n1cccc1 [Example 1c, N-hydroxy-3-(3-(4-((pyridin-3-yloxy)methyl)phenoxy)azetidin-1-yl)-2-(1H-pyrrole-1-yl) benzamide] | < 1
CNC(=O)c1cccc(N2CC(Oc3ccc(COc4cccnc4)cc3)C2)c1-n1cccc1 [Example 1d, N-methyl-3-(3-(4-((pyridin-3-yloxy)methyl)phenoxy)azetidin-1-yl)-2-(1H-pyrrol-1-yl) benzamide] | < 1
CN(C)C(=O)c1cccc(N2CC(Oc3ccc(COc4cccnc4)cc3)C2)c1-n1cccc1 [Example 1e, N,N-dimethyl-3-(3-(4-((pyridin-3-yloxy)methyl)phenoxy)azetidin-1-yl)-2-(1H-pyrrol-1-yl) benzamide] | 1 to 10
O=C(c1cccc(N2CC(Oc3ccc(COc4cccnc4)cc3)C2)c1-n1cccc1)N1CCCC1 [Example 1f, (3-(3-(4-((pyridin-3-yloxy)methyl)phenoxy)azetidin-1-yl)-2-(1H-pyrrol-1-yl)phenyl)(pyrrolidin-1-yl) methanone] | 1 to 10
c1cncc(OCc2ccc(OC3CN(c4ccccc4-n4cccc4)C3)cc2)c1 [Example 1g, 3-((4-((1-(2-(1H-pyrrole-1-yl)phenyl)azetidin-3-yl)oxy)benzyl)oxy) pyridine] | 10 to 50
COC(=O)c1cccc(N2CC(Oc3ccc(COc4cnccc4C)cc3)C2)c1-n1cccc1 [Example 2, methyl 3-(3-(4-((4-methylpyridin-3-yloxy)methyl)phenoxy)azetidin-1-yl)-2-(1H-pyrrol-1-yl) benzoate] | > 50
Cc1ccncc1OCc1ccc(OC2CN(c3cccc(C(=O)O)c3-n3cccc3)C2)cc1 [Example 2a, 3-(3-(4-((4-methylpyridin-3-yloxy)methyl)phenoxy)azetidin-1-yl)-2-(1H-pyrrol-1-yl) benzoic acid] | > 50
COC(=O)c1cccc(N2CC(Oc3ccc(COc4cncc(C)c4)cc3)C2)c1-n1cccc1 [Example 3, methyl 3-(3-(4-((5-methylpyridin-3-yloxy)methyl)phenoxy)azetidin-1-yl)-2-(1H-pyrrol-1-yl) benzoate] | > 50
Cc1cncc(OCc2ccc(OC3CN(c4cccc(C(=O)O)c4-n4cccc4)C3)cc2)c1 [Example 3a, 3-(3-(4-((5-methylpyridin-3-yloxy)methyl)phenoxy)azetidin-1-yl)-2-(1H-pyrrol-1-yl) benzoic acid] | > 50
COC(=O)c1cccc(N2CC(Oc3ccc(COc4ccc(OC)nc4)cc3)C2)c1-n1cccc1 [Example 4, methyl 3-(3-(4-(((6-methoxypyridin-3-yl)oxy)methyl)phenoxy)azetidin-1-yl)-2-(1H-pyrrol-1-yl) benzoate] | > 50
COc1ccc(OCc2ccc(OC3CN(c4cccc(C(=O)O)c4-n4cccc4)C3)cc2)cn1 [Example 4a, 3-(3-(4-(((6-methoxypyridin-3-yl)oxy)methyl)phenoxy)azetidin-1-yl)-2-(1H-pyrrol-1-yl) benzoic acid] | > 50
COC(=O)c1cccc(N2CC(Oc3ccc(COc4ccc(C)nc4)cc3)C2)c1-n1cccc1 [Example 5, methyl 3-(3-(4-((6-methylpyridin-3-yloxy)methyl)phenoxy)azetidin-1-yl)-2-(1H-pyrrol-1-yl) benzoate] | > 50
Cc1ccc(OCc2ccc(OC3CN(c4cccc(C(=O)O)c4-n4cccc4)C3)cc2)cn1 [Example 5a, 3-(3-(4-((6-methylpyridin-3-yloxy)methyl)phenoxy)azetidin-1-yl)-2-(1H-pyrrol-1-yl) benzoic acid] | > 50
COC(=O)c1cccc(N2CC(Oc3ccc(COc4cncc(OC)c4)cc3)C2)c1-n1cccc1 [Example 6, methyl 3-(3-(4-(((5-methoxypyridin-3-yl)oxy)methyl)phenoxy)azetidin-1-yl)-2-(1H-pyrrol-1-yl) benzoate] | > 50
COc1cncc(OCc2ccc(OC3CN(c4cccc(C(=O)O)c4-n4cccc4)C3)cc2)c1 [Example 6a, 3-(3-(4-(((5-methoxypyridin-3-yl)oxy)methyl)phenoxy)azetidin-1-yl)-2-(1H-pyrrol-1-yl) benzoic acid] | > 50
COC(=O)c1cccc(N2CC(Oc3ccc(N(C)C(=O)Nc4cccc(C#N)c4)cc3)C2)c1-n1cccc1 [Example 7, methyl 3-(3-(4-(3-(3-cyanophenyl)-1-methylureido)phenoxy)azetidin-1-yl)-2-(1H-pyrrol-1-yl) benzoate] | 10 to 50
CN(C(=O)Nc1cccc(C#N)c1)c1ccc(OC2CN(c3cccc(C(=O)O)c3-n3cccc3)C2)cc1 [Example 7a, 3-(3-(4-(3-(3-cyanophenyl)-1 - methylureido)phenoxy)azetidin-1-yl)-2-(1H-pyrrol-1-yl) benzoic acid] | 10 to 50
COC(=O)c1cccc(N2CC(Oc3ccc(COc4ccncc4)cc3)C2)c1-n1cccc1 [Example 8, methyl 3-(3-(4-((pyridin-4-yloxy)methyl)phenoxy)azetidin-1-yl)-2-(1H-pyrrol-1-yl) benzoate] | 10 to 50
O=C(O)c1cccc(N2CC(Oc3ccc(COc4ccncc4)cc3)C2)c1-n1cccc1 [Example 8a, 3-(3-(4-((pyridin-4-yloxy)methyl)phenoxy)azetidin-1-yl)-2-(1H-pyrrol-1-yl) benzoic acid] | > 50
COC(=O)c1cccc(N2CC(Oc3ccc(COc4cnc5ccccc5c4)cc3)C2)c1-n1cccc1 [Example 9, methyl 2-(1H-pyrrol-1-yl)-3-(3-(4-((quinolin-3-yloxy)methyl)phenoxy)azetidin-1-yl) benzoate] | > 50
O=C(O)c1cccc(N2CC(Oc3ccc(COc4cnc5ccccc5c4)cc3)C2)c1-n1cccc1 [Example 9a, 2-(1H-pyrrol-1-yl)-3-(3-(4-((quinolin-3-yloxy)methyl)phenoxy)azetidin-1-yl) benzoic acid] | > 50
COC(=O)c1cccc(N2CC(Oc3ccc(NC(=O)Nc4cccc(C(F)(F)F)c4)cc3)C2)c1-n1cccc1 [Example 10, methyl 2-(1H-pyrrol-1-yl)-3-(3-(4-(3-(3-(trifluoromethyl)phenyl)ureido)phenoxy)azetidin-1-yl) benzoate] | 10 to 50
O=C(Nc1ccc(OC2CN(c3cccc(C(=O)O)c3-n3cccc3)C2)cc1)Nc1cccc(C(F)(F)F)c1 [Example 10a, 2-(1H-pyrol-1-yl)-3-(3-(4-(3-(3-(trifluoromethyl)phenyl)ureido)phenoxy)azetidin-1-yl) benzoic acid] | 10 to 50
